US7888527B2 (University of Virginia Patent Foundation, priority 2004, dated 2011)

What was measured:
S1P2 receptor [1] = molecular target: T1, S1P2 receptor (Homo sapiens, UniProt O95136); experiment: [γ-35S]GTP binding assay, HEK293T membranes; format: biochemical
T1 construct: expressed in transfected cells; host or cells: HEK293T, transient transfection; membranes
From the text: The appropriate receptor plasmid DNA (encoding human S1P1, human S1P2, human S1P3, human S1P4, human S1P5, human LPA1, human LPA2 or human LPA3 receptors) is mixed with equal amounts of expression plasmids encoding human Gi2α (for S1P3, a mutated (C352F) rat Gi2α is used), cow β1, and cow γ2 proteins, and these DNAs are used to transfect monolayers of HEK293T cells (where ‘T’ indicates expression of the SV-40 virus large T antigen) using the calcium phosphate precipitate method (7). After about 60 hours, cells are harvested, membranes prepared, aliquoted, and stored at −70° C. until use (8).
The [γ-^35S]GTP binding assay is performed as described previously (8). Membranes containing 1-5 μg of protein are incubated in 0.1 ml of binding buffer (in mM: HEPES/50, NaCl/100, MgCl2/10, pH 7.5) containing 5 μg of saponin, 10 μM GDP, 0.1 nM [γ-^35S]GTP (1200 Ci/mmol), and indicated lipid(s) for 30 min at 30° C. and collected using a Brandel Cell Harvester (Gaithersburg, Md.). Samples are then analyzed for bound radionuclide.
Statistical Analysis. The EC50 and IC50 values for all dose response curves were determined by nonlinear regression analysis of all data using the Graphpad Prism© program. The error associated with the data collected is reported as the standard error of the mean (S.E.M).

S1P2 receptor [2] = molecular target: T1, S1P2 receptor; experiment: [32P]S1P binding assay; conditions: concentrations up to 10 μM (data not shown)
Description: [^32P]-S1P was prepared by incubating sphingosine and [γ-^32P]ATP with cell lysate from HEK293T cells transiently transfected with human sphingosine kinase type 2 DNA. The 200 μl reaction contained 0.025 mM sphingosine, 1 mCi [γ-^32P]ATP (7000 Ci/mmol) and kinase buffer (in mM: Mg(C2H3O2)2 (in 50 mM Tris, pH 7.5)/10, NaF/10, and semicarbizide/2). The reaction was initiated by the addition of 20 μg of cell lysate and incubated at 37° C. for at least 30 minutes. […] The organic layer was isolated and the extraction procedure repeated two additional times with the remaining aqueous fraction. The combined organic fractions were dried under a stream of nitrogen gas and resuspended in aqueous 0.1% fatty acid free BSA.
Bound ligand was separated from free ligand by rapid filtration and analyzed in a liquid scintillation counter.

human S1P3 receptor = human S1P3 receptor (Homo sapiens, UniProt Q99500); experiment: Intracellular calcium mobilization, T24 cells transfected stably with human S1P3 receptor; format: cell-based; set-up: expressed in transfected cells
Description: […] monolayers are co-transfected with the human S1P1, S1P2, S1P3 receptor encoding DNAs and the pIRESpuro2 plasmid DNA (Clontech, San Jose, Calif.,) using either Lipofectamine 2000 (Invitrogen, Carlsbad, Calif.) or FuGENE 6 (Roche Applied Science, Indianapolis, Ind.). Clonal populations expressing the puromycin acetyltransferase gene are selected by addition of puromycin (Sigma-Aldrich, St. Louis, Mo.) to the culture media. T24 cells are grown in monolayers at 37° C. in a 5% CO2/95% air atmosphere in growth media consisting of: 95% DMEM/F-12 medium and 10% charcoal/dextran stripped FBS.
A FlexStation™ fluorimeter (Molecular Devices, Menlo Park, Calif.) was used to measure intracellular calcium in native T24 cells and T24 cells transfected stably with either human S1P2 or human S1P3 receptor DNA. Cells were seeded (˜50,000 cells/well) in 96-well, clear bottom black microplates (Corning Costar Corp.) and left overnight at 37° C. The cells were dye-loaded with 4 μM Fluo-4AM ester in a loading buffer (Hank's Balanced Salt Solution, […], containing 20 mM HEPES, 0.1% fatty acid free BSA, and 2.5 mM probenecid) for 30 minutes at 37° C. After washing cell monolayers three times with phosphate buffered saline, loading buffer was added and the cells exposed to sets of compounds for 3 minutes at 25° C. in the FlexStation™. In all cases, each concentration of every compound was tested in at least triplicate. […] The cells were washed with phosphate buffered saline and exposed to compounds immediately, as described above.
Briefly, nonlinear analysis of the best-fit line generated by plotting the negative log of the EC50 values obtained from agonist dose-response curves, in the absence and presence of varying concentrations of antagonist, was plotted against the concentration of antagonist to give the Kb value.

T1 sequence (O95136 whole entry): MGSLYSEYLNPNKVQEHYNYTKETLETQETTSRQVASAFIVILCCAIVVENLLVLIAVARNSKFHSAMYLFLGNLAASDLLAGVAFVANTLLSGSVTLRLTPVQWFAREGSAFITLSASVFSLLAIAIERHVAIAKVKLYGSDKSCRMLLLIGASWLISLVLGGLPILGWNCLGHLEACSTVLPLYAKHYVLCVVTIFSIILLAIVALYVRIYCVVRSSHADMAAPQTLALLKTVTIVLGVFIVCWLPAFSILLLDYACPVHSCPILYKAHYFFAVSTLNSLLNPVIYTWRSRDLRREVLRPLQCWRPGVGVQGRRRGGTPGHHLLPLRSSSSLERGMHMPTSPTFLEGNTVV
Chain of human S1P3 receptor (Q99500 whole entry): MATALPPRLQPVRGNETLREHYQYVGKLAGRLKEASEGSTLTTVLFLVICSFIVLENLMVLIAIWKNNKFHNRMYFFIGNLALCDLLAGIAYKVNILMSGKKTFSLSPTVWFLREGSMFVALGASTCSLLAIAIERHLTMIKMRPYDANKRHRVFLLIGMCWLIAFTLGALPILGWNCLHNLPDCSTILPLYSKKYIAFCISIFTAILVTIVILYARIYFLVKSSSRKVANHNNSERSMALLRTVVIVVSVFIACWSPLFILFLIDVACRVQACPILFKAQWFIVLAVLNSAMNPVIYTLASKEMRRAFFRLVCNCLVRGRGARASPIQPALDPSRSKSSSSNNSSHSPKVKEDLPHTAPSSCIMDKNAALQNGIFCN

Activity at the S1P2 receptor (S1P2 receptor [1]): devoid of agonist activity
EC50 (S1P2 receptor [1]; -log molar concentration giving 50% of maximal [γ-35S]GTP binding, ± S.E.M., read-out: pEC50 S1P2 (converted)): > 10 µM
Influence on binding of [32P]S1P to the S1P2 receptor (S1P2 receptor [2]): did not influence the binding
Reversibility of antagonism after washout, Ca2+ mobilization (human S1P3 receptor; 10000 nM VPC23019 pre-treatment followed by washout): recovered fully
Structure (SMILES): CCCCCCCCc1cccc(NC(=O)[C@H](N)COP(=O)(O)O)c1 [VPC23019]
Agonist or antagonist activity at the human S1P2 receptor (S1P2 receptor [1]; concentrations up to 10 micromolar): inactive as either an agonist or antagonist
Competitive behaviour in calcium mobilization assay (nonlinear regression) (human S1P3 receptor; T24-S1P3 cells): did not behave as a competitive antagonist
Calcium mobilization by compound alone (human S1P3 receptor; T24-S1P3 cells versus wild-type T24 cells): not a result of stimulation of the S1P3 receptor
